Measured values from ChEMBL document CHEMBL1156900, “Synthesis and anti-influenza virus activity of dihydrofuran-fused perhydrophenanthrenes with a benzyloxy-type side-chain” (2010).
Active and inactive are the calls of the source. The rule behind the calls is not given here.

These molecules were tested on H3N2 subtype (assay: Antiviral activity against influenza A virus A/Aichi/2/68 (H3N2) infected in MDCK cells at 10 uM by plaque titration assay relative to control). Details: not given.
Format: functional, A/Aichi/2/1968(H3N2)

| Compound | Activity [%] |
| --- | --- |
| N#C[C@]12CCC3(OCCO3)C3=CO[C@H](Cc4cc(OCc5ccccc5)ccc41)[C@@H]32 | 30 |
| N#C[C@]12CCC3(OCCO3)C3=CO[C@H](Cc4cc(-c5c(F)cc(F)cc5F)ccc41)[C@@H]32 | 70 |
| N#C[C@]12CCC3(OCCO3)C3=CO[C@H](Cc4cc(-c5ccccc5)ccc41)[C@@H]32 | 70 |
| N#C[C@]12CCC3(OCCO3)C3=CO[C@H](Cc4cc(OCc5cc(F)cc(F)c5)ccc41)[C@@H]32 | 30 |

Same assay, conditions: A/Aichi/2/1968(H3N2)

| Compound | Activity |
| --- | --- |
| N#C[C@]12CCC3(OCCO3)C3=CO[C@H](Cc4cc(OCc5ccccn5)ccc41)[C@@H]32 | Active |
| N#C[C@]12CCC3(OCCO3)C3=CO[C@H](Cc4cc(OC(F)(F)F)ccc41)[C@@H]32 | Active |
| N#C[C@]12CCC3(OCCO3)C3=CO[C@H](Cc4cc(OCc5ccc(COc6ccc7c(c6)C[C@H]6OC=C8[C@H]6[C@@]7(C#N)CCC86OCCO6)cc5)ccc41)[C@@H]32 | Active |
| N#C[C@]12CCC3(OCCO3)C3=CO[C@H](Cc4cc(OCc5cccnc5)ccc41)[C@@H]32 | Active |
| N#C[C@]12CCC3(OCCO3)C3=CO[C@H](Cc4cc(OCc5ccncc5)ccc41)[C@@H]32 | Active |
| N#C[C@]12CCC3(OCCO3)C3=CO[C@H](Cc4cc(OS(=O)(=O)C(F)(F)F)ccc41)[C@@H]32 | inactive |
